Data as given in patent US9981997B2, “Chemical reagents for attaching affinity molecules on surfaces” (ARIZONA BOARD OF REGENTS ON BEHALF OF ARIZONA STATE …, priority 2013, dated 2018).
Values joined by “and” are separate entries in the source; they are usually repeats but may differ in a detail not shown here. Equal entries are not always repeated.

Tests used:
[1] = molecular target: T1, thrombin (Homo sapiens, UniProt P00734); assay: AFM recognition imaging of thrombin on mica; type: binding; conditions: conjugate on Ni-coated MacMode silicon tip; protein 50 pg/μL
T1 construct: protein cognates human α-thrombin and human α5β1-integrin immobilized on mica surfaces; purchased Abeam (so in the source)
Source text: The AFM based recognition imaging is an effective tool for clinical diagnostics. The attachment and click chemistry of the disclosure works well in combination with the RI technique. Prior to this disclosure, the recognition imaging of clinically relevant proteins thrombin and integrin had not been reported. […] Linker 6a was tailored for RI. Its conjugate D-1a or P-1a was attached to Ni-coated MacMode tips (from Nanoworld) following the same protocol above mentioned. The protein samples (thrombin or α5β1 integrin) were deposited on mica using the same glutaraldehyde chemistry. However, the optimal protein concentration (50 pg/μL in 1×PBS buffer, pH 7.4) for the RI was […] lower than that for the force measurements, which was pre-determined by imaging the surface with bare AFM tips in the air mode, ensuring that the protein molecules were well distributed in a predefined area. For one measurement, only […] of protein sample is needed in the current setup. Thus, a few femtomoles of proteins can readily be detected by the AFM based recognition imaging. […] RI simultaneously produces both topographic and recognition images. Each bright round spot in the topographic image represents a protein molecule (thrombin in Panel A and integrin in panel D of FIG. 16). […]

[2] = Water contact angle of derivatized silicon oxide surfaces; type: physicochemical; conditions: water on derivatized silicon oxide surface
Protocol: (§1) A silicon substrate (1×1 cm2) was cleaned thoroughly with ethanol, dried by nitrogen, and then treated with oxygen plasma for two minutes using Harrick Plasma Cleaner (medium power). APTES was deposited on the substrate using a vapor deposition method (H. Wang, et al. Biophys. J., 2002, 83, 3619-3625). The aminated substrate was immersed in a solution of compound 2 (1 mg/mL). NHS/EDC (1 mg each) and triethyl amine (5 μL) in dry dicholoromethane. After three hours, the substrates were taken out and rinsed with dry dichloromethane (twice) followed by ethanol (twice) and dried with argon.
(§2) A silicon substrate (1×1 cm2) was cleaned as described with respect to reactions 1-a nd 1-b, and then immersed in an aq. solution of silatrane derivative 3 (50 mM). After one hour, the substrates were taken out and rinsed five times with deionized water and dried with argon.
(§3) Contact angles were measured using Kruss EasyDrop. For the measurement, 2 μL of water droplets were deposited on different positions of a substrate placed on the sample plate and contact angles were measured in the video window of manufacturer's DSA software. Thicknesses of the monolayers were measured using Gaertner Scientific Corporation ellipsometer. For the thickness calculation, the refractive indices of both silicon oxide layers and organic layers were assumed to be 1.46 (T. Nguyen et al. J. Adhesion, 1995, 48, 169-194). Five different arbitrary positions on the substrate were chosen and the average value was taken. The thickness of the monolayer was determined by subtracting the silicon oxide thickness from the measured one.

[3] = Ellipsometric thickness of monolayers on silicon oxide; type: physicochemical; conditions: organic layer on silicon oxide, ellipsometry
Protocol: as §1, §2, §3

[4] = molecular target: bovine serum albumin (BSA) (Bos taurus, UniProt P02769); assay: AFM force measurement: non-specific interaction with BSA immobilized mica; type: binding; conditions: BSA on the substrate (non-specific control)
bovine serum albumin (BSA), sequence (P02769 25-607): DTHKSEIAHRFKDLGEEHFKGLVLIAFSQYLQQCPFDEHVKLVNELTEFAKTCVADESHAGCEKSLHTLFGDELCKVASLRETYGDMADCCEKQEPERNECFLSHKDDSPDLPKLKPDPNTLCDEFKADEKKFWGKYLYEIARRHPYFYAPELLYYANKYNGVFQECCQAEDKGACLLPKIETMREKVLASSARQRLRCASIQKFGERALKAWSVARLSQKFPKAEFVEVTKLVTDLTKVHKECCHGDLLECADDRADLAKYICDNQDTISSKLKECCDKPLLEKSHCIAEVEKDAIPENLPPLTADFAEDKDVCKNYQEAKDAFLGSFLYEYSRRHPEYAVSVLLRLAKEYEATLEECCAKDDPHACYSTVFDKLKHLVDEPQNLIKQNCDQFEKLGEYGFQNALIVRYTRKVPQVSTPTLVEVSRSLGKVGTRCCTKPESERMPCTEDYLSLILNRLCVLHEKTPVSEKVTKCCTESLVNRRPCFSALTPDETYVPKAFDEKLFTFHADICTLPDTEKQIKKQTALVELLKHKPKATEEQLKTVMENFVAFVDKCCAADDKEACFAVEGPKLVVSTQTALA
Source text: (§4) Non-specific interactions between functionalized AFM tips with both bare and bovine serum albumin (BSA) immobilized mica substrates were examined. The functionalized AFM tips generally formed featureless force-distance curves on these surfaces. Only 6.1% of collected curves show unbinding ruptures from the nonspecific TBA-BSA interaction (median force 14.4 pN) and 5.6% from the nonspecific RGD-BSA interaction (median force 15.3 pN) around the expected distance, respectively. The functionalized tips interacted with the bare mica surfaces with even lower statistics and smaller unbinding forces.
Freshly cleaved mica sheets (1.5×2.0 cm^2) were immersed in an aqueous solution of APS (50 mM). After one hour, the mica sheets were taken out and rinsed thoroughly with water thrice. In a humid surrounding, an aqueous solution of glutaraldehyde (1 mM, 200 μL) was added on the APS mica sheet. After 10 minutes, the mica substrates were rinsed with water thrice, and then a solution of protein in a 1×PBS buffer (3 μL) was placed on it, incubated for one hour, and rinsed with the 1×PBS buffer thrice. In general, protein concentrations were made around 10 ng/μL for force measurements and 0.05 ng/μL for recognition imaging. It should be noted that integrin we used was a lyophilized product from a solution containing: 0.26 mg/ml α5β1, 20 mM Tris-HCl pH 7.5, 150 mM NaCl, 2 mM MgCl2, 0.2% Triton X-100, which was reconstituted by dissolving it in 1×PBS buffer.
(§5) An Agilent AFM 5500 (with inverted light microscope) system was used for the AFM experiments. Both force measurement and recognition imaging were carried out in 1×PBS buffer (pH 7.4). For force measurements, Veeco probes (Bicker, SiN tips) were used, having a force constant 0.05 N/m and a gold back coating, and the loading rate was 25000 pN/s.
(§6) Topography images, recognition images and force spectra were recorded using Agilent PicoView software. The force-distance curves were analyzed in PicoView, and the corresponding unbinding forces were plotted in the form of histograms and fitted into the Gaussian function using MathWorks-MATLAB.

[5] = AFM force measurement: non-specific interaction with bare mica; type: binding; conditions: bare mica substrate
Source text: as §4, §5, §6

[6] = molecular target: T2, human α5β1 integrin (Homo sapiens, UniProt P05556+P08648); assay: AFM force measurement: unbinding of tip-tethered affinity molecule from integrin immobilized on mica; type: binding
T2 construct: purchased YO Proteins AB (Sweden)
T2 sequence (P08648 42-894 limits assumed): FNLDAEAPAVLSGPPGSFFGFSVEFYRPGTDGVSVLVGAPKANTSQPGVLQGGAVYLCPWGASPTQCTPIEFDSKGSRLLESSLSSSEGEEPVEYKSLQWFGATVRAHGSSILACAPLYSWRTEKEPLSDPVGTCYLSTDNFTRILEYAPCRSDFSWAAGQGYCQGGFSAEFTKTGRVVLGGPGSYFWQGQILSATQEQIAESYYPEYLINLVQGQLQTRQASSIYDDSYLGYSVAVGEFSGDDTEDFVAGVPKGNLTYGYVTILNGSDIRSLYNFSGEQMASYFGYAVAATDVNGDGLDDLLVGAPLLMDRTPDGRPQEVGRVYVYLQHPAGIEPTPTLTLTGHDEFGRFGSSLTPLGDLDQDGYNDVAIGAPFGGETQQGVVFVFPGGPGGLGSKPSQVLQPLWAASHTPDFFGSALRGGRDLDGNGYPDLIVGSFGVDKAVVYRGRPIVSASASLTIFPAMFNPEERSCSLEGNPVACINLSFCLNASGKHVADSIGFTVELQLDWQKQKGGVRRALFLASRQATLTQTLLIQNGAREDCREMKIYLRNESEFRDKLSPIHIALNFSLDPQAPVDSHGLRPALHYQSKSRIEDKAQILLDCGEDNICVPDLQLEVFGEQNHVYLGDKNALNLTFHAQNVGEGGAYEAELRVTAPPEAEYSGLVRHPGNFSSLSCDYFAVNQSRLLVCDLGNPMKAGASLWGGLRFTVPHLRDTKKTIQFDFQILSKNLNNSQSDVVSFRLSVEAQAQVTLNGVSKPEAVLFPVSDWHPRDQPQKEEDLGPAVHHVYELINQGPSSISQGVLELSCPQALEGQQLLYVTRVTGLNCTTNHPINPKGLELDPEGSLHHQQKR
T2 sequence (P08648 895-1049 partner limits assumed): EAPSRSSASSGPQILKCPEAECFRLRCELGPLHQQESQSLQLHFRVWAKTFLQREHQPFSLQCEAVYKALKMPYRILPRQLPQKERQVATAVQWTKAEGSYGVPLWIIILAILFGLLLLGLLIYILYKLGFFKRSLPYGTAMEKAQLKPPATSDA
T2 sequence (P05556 21-798): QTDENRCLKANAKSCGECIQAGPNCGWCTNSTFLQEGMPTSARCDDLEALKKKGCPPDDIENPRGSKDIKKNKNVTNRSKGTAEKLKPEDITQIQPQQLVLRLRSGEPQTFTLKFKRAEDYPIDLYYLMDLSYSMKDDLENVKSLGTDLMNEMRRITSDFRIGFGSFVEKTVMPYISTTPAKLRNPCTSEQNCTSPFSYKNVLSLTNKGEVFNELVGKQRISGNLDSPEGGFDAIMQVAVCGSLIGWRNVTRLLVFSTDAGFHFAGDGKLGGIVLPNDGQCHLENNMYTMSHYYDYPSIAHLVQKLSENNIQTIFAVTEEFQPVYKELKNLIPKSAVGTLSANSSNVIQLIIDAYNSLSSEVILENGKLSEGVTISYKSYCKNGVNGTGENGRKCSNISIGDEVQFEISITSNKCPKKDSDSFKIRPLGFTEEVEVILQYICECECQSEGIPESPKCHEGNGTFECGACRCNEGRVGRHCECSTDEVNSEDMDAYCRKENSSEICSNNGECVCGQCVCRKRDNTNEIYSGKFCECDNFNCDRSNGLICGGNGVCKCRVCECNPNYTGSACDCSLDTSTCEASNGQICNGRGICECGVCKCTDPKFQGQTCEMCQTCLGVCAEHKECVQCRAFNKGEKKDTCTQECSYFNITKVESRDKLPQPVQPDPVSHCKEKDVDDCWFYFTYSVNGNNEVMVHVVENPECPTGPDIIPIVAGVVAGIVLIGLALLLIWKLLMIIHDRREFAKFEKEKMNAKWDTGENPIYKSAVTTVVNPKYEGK
Source text: (§7) The attachment chemistry was validated using the functionalized SiN tips to measure forces of affinity molecules unbinding from their respective protein cognates. The protein sample was immobilized on APS-modified mica substrate using glutaraldehyde as a crosslinker (for procedure, see Wang, et al. Biophys. J. 2002, 83, 3619-3625). Initially, about 1000 force-distance curves were collected from each of measurement experiments with either D-1b against thrombin or P-1b against integrin α5β1. The solid lines in Panel A and D of FIG. 14 show exemplary retracting force-distance curves used for data analysis, which accounts for more than one fourth of the collections. The selection was based on an assumption that a rupture directly related to unbinding of an affinity molecule from its protein cognate is likely to take place around the distance corresponding to the stretched length of a PEG linker (˜13.5 nm in this instance). A distance histogram was created from each data set (Panel B and E of FIG. 14). […] Ratios of the rupture events between these two regions were 1:1.2 for the TBA tip against the thrombin protein and 1:1.3 for the RGD tip against the integrin protein respectively. After finishing the initial measurements, a thrombin or integrin solution was injected to the flow cell accordingly, and then another set of force curves were collected to determine the specificity of unbinding (see, for example, Lee, et al. Micron 2007, 38, 446-461). A disappearance of the specific unbinding ruptures from the force-distance curves was anticipated because the interactions of the affinity molecule tethered to the tip with its cognates on the substrate were blocked by protein from the solution. In fact, force-distance curves were obtained appearing like the dotted lines in Panel A and D of FIG. 14. Overall, the ruptures around the longer distances were reduced to a great extent and those around the shorter distances remained (Panel C and F of FIG. 14) in comparison with those prior to blocking. The rupture ratios between these two regions were changed to 12.3:1 for the TBA tip against the thrombin modified surface and 12:1 for the RGD tip against the integrin modified surface.
(§8) AFM tips (a batch of four or five) were first immersed in ethanol for five minutes, dried with ultrapure argon, and then treated with ultraviolet-ozone in a Boekel UV cleaner for 15 minutes and oxygen plasma (medium power) in a Harrick Plasma Cleaner for 2 minutes. These tips were immediately placed in a petri dish, to which an aqueous solution of compound 3 (50 mM) was added. After one hour, the tips were taken out, rinsed with water thrice, and dried gently with nitrogen. […]

[7] = molecular target: T3, human α-thrombin (Homo sapiens, UniProt P00734); assay: AFM force measurement: unbinding of tip-tethered affinity molecule from thrombin immobilized on mica; type: binding
T3 construct: protein cognates human α-thrombin and human α5β1-integrin immobilized on mica surfaces; purchased Abeam (so in the source)
Source text: as §7, §8

[8] = tip blocked with integrin solution, integrin on mica
[9] = tip blocked with thrombin solution, thrombin on mica

Compound	Contact Angle (°) [2]	Thickness (Å) [3]	Unbinding events (%) [4]	Unbinding force (pN) [4]	Unbinding events (%) [5]	Unbinding force (pN) [5]	further results
D-1a: thrombin-binding DNA aptamer 5′-GGTTGGTGTGGTTGG, 3′-thiol, joined to PEG linker 6a by Michael addition (DNA, backbone not given here; 3'-thiol joined to PEG linker 6a by Michael addition)	–	–	–	–	–	–	recognition of thrombin (topography vs recognition image) [1]: About 77%
O=C(COC1C#CCCCCC1)NCCC[Si-]123OCC[N+]1(CCO2)CCO3 (centres unmarked) [compound 3, N-(3-(silatranyl)propyl)-2-(cyclooct-2-yn-1-yloxy)acetamide]	~78 °	15.3 Å	–	–	–	–	–
cyclo(RGDfC)	–	–	5.6%	15.3 pN and 15.3 ± 14.4 pN	2.5%	6.7 ± 4.0 pN	Unbinding events (%) ([6]; functionalized SiN tip against integrin on mica): 29.4%; Unbinding force (pN) ([6]; functionalized SiN tip against integrin on mica, Gaussian fit, loading rate 25000 pN/s): 48.0 ± 27.8 pN; Unbinding events (%) [6, 8]: 6.7%; Unbinding force (pN) [6, 8]: 11.1 ± 10.7 pN
5′-GGTTGGTGTGGTTGG [TBA]	–	–	6.1%	14.4 pN and 14.4 ± 9.4 pN	3.0%	6.9 ± 3.8 pN	Unbinding force (pN) ([7]; functionalized SiN tip against thrombin on mica, Gaussian fit of force histogram, loading rate 25000 pN/s): 80.2 ± 34.5 pN; Unbinding events (%) ([7]; functionalized SiN tip against thrombin on mica, ruptures around the specific unbinding distance over total force curves): 26.5%; Unbinding events (%) [7, 9]: 7.0%; Unbinding force (pN) [7, 9]: 15.6 ± 12.9 pN
O=C(O)COC1C#CCCCCC1 (centres unmarked) [compound 2, 2-(cyclooct-2-yn-1-yloxy)acetic acid]	76 °	~15.9 Å	–	–	–	–	–
CCO[Si](CCCN)(OCC)OCC [APTES, (3-Arninopropyl)triethoxysilane]	~46 °	about 7.3 Å	–	–	–	–	–
